# Measurements: ChEMBL document CHEMBL1201862, “PubChem BioAssay data set” (2004)
#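 Compound exposure: 48 hours, 5 concentrations, 96-well plates. Abbreviation: GI50, concentration required for 50% inhibition of growth.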 Active and inactive are the calls of the source. Cut-off read from the data, not from the text of the source: active = GI50 up to about 1.1 µM and inactive = higher.
# Legend:
# Test in all cases: inhibition of tumour cell growth, NCI panel, 48 h
# MCF7 = test system: MCF7
# COLO 205 = test system: COLO 205
# NCI/ADR-RES = test system: NCI/ADR-RES
# MDA-MB-435 = test system: MDA-MB-435
# HOP-92 = test system: HOP-92
# A498 = test system: A498
# Malme-3M = test system: Malme-3M
# NCI-H226 = test system: NCI-H226
# T47D = test system: T47D
# HCT-116 = test system: HCT-116
# DU-145 = test system: DU-145
# SW-620 = test system: SW-620
# ACHN = test system: ACHN
# SK-MEL-2 = test system: SK-MEL-2
# SNB-19 = test system: SNB-19
# BT-549 = test system: BT-549
# DMS-114 = test system: DMS-114
# SF-295 = test system: SF-295
# SNB-78 = test system: SNB-78
# XF498 = test system: XF498
SMILES,GI50 (MCF7),GI50 (COLO 205),GI50 (NCI/ADR-RES),GI50 (MDA-MB-435),GI50 (HOP-92),GI50 (A498),GI50 (Malme-3M),GI50 (NCI-H226),GI50 (T47D),GI50 (HCT-116),GI50 (DU-145),GI50 (SW-620),GI50 (ACHN),GI50 (SK-MEL-2),GI50 (SNB-19),GI50 (BT-549),GI50 (DMS-114),GI50 (SF-295),GI50 (SNB-78),GI50 (XF498)
NC(Cc1ccc(OCc2ccccc2)cc1)C(=O)NC(Cc1ccccc1)C(=O)Oc1c(Cl)c(Cl)c(Cl)c(Cl)c1Cl (centres undefined),19 µM (inactive),14.6 µM (inactive),17.9 µM (inactive),18.3 µM (inactive),11.9 µM (inactive),20.9 µM (inactive),20.9 µM (inactive),13.2 µM (inactive),17.9 µM (inactive),17.5 µM (inactive),12.8 µM (inactive),16.8 µM (inactive),16.5 µM (inactive),13.3 µM (inactive),17.7 µM (inactive),17.5 µM (inactive),–,–,–,–
O=c1ccc2nc3cc(Br)ccc3sc-2c1,–,> 100 µM (inactive),–,–,> 100 µM (inactive),–,> 100 µM (inactive),> 100 µM (inactive),–,> 100 µM (inactive),–,> 100 µM (inactive),57 µM (inactive),> 100 µM (inactive),> 100 µM (inactive),–,> 100 µM (inactive),> 100 µM (inactive),> 100 µM (inactive),–
CCCCC(=O)c1c(O)nc2sccn2c1=O,> 10 µM (inactive),> 10 µM (inactive),> 10 µM (inactive),> 10 µM (inactive),–,> 10 µM (inactive),> 10 µM (inactive),> 10 µM (inactive),> 10 µM (inactive),> 10 µM (inactive),> 10 µM (inactive),> 10 µM (inactive),> 10 µM (inactive),> 10 µM (inactive),> 10 µM (inactive),–,–,> 10 µM (inactive),–,–
COc1ccc(C2CC(c3c(O)ccc4ccccc34)=NN2)cc1OC (centres undefined),6.37 µM (inactive),6.12 µM (inactive),2.62 µM (inactive),2.96 µM (inactive),3.7 µM (inactive),18.5 µM (inactive),4.02 µM (inactive),2.54 µM (inactive),4.04 µM (inactive),–,5.71 µM (inactive),–,1.86 µM (inactive),6 µM (inactive),2.1 µM (inactive),3.92 µM (inactive),–,2.55 µM (inactive),–,–
Cc1cccc(C(C)C)c1NC(=O)CC1Sc2ccccc2NC1=O (centres undefined),–,> 100 µM (inactive),–,–,37.8 µM (inactive),72.4 µM (inactive),31.8 µM (inactive),77.8 µM (inactive),–,55.6 µM (inactive),–,76.4 µM (inactive),> 100 µM (inactive),42.5 µM (inactive),> 100 µM (inactive),–,23.4 µM (inactive),40.2 µM (inactive),–,> 100 µM (inactive)
CC(C)(C)[Si](C)(C)OCC1OC(n2cnc3c(N)ncnc32)CC1O (centres undefined),> 100 µM (inactive),91.6 µM (inactive),40.4 µM (inactive),> 100 µM (inactive),–,81.8 µM (inactive),> 100 µM (inactive),53.1 µM (inactive),41.6 µM (inactive),> 100 µM (inactive),95.5 µM (inactive),> 100 µM (inactive),–,56.1 µM (inactive),> 100 µM (inactive),32.7 µM (inactive),–,> 100 µM (inactive),–,–
[O-][n+]1c2c([n+]([O-])c3ccccc31)-c1cccc3cccc-2c13,> 100 µM (inactive),> 100 µM (inactive),> 100 µM (inactive),> 100 µM (inactive),81.3 µM (inactive),> 100 µM (inactive),–,> 100 µM (inactive),> 100 µM (inactive),> 100 µM (inactive),> 100 µM (inactive),> 100 µM (inactive),> 100 µM (inactive),–,> 100 µM (inactive),–,–,34.3 µM (inactive),–,–
COC1CCC(O)C(CO)O1 (centres undefined),–,–,–,–,> 100 µM (inactive),–,20.5 µM (inactive),–,–,> 100 µM (inactive),–,24.3 µM (inactive),> 100 µM (inactive),> 100 µM (inactive),–,–,–,> 100 µM (inactive),> 100 µM (inactive),> 100 µM (inactive)
CN(C)C(=O)OCOC(=O)N(C)C,> 100 µM (inactive),> 100 µM (inactive),> 100 µM (inactive),–,> 92.5 µM (inactive),> 100 µM (inactive),> 100 µM (inactive),> 100 µM (inactive),–,> 100 µM (inactive),–,> 100 µM (inactive),–,> 100 µM (inactive),> 100 µM (inactive),–,> 100 µM (inactive),> 100 µM (inactive),> 100 µM (inactive),> 100 µM (inactive)
CC1(C)OC2CC(=O)OCC23C1CC(=O)C1(C)C3CCC2(C)C(c3ccoc3)OC(=O)C3OC321 (centres undefined),> 70.3 µM (inactive),> 125 µM (inactive),> 125 µM (inactive),–,–,> 125 µM (inactive),123 µM (inactive),> 125 µM (inactive),–,> 125 µM (inactive),–,> 125 µM (inactive),–,> 125 µM (inactive),> 125 µM (inactive),–,> 125 µM (inactive),> 125 µM (inactive),> 125 µM (inactive),> 125 µM (inactive)
O=C(O)C12CCCC(CCC1)C2,–,> 100 µM (inactive),–,–,> 100 µM (inactive),> 100 µM (inactive),> 100 µM (inactive),–,–,> 100 µM (inactive),–,> 100 µM (inactive),> 100 µM (inactive),> 100 µM (inactive),> 100 µM (inactive),–,> 100 µM (inactive),> 100 µM (inactive),> 100 µM (inactive),> 100 µM (inactive)
COc1cc(C2c3cc4c(cc3[C@@H](Nc3ccc5c(c3)OCO5)C3COC(=O)[C@H]23)OCO4)cc(OC)c1O (some centres undefined),0.175 µM (active),1.68 µM (inactive),0.482 µM (active),–,0.424 µM (active),0.333 µM (active),1.42 µM (inactive),0.217 µM (active),–,0.74 µM (active),–,1.2 µM (inactive),–,2.4 µM (inactive),0.299 µM (active),–,–,0.213 µM (active),–,1.64 µM (inactive)
